Source: patent publication US10988478B1, “Pyrazolo[1,5a]pyrimidine derivatives as IRAK4 modulators” (Genentech, Inc., priority 2015, dated 2021)

biological target: human IRAK4 (Homo sapiens (Human), UniProt Q9NWZ3); test: IRAK4 kinase inhibition, Transcreener fluorescence polarization ADP assay; assay type: biochemical; settings: recombinant full-length His6-IRAK4; 125 uM ATP; 90 min; Ki computed using ATP Km 642 uM
Experimental: Compounds were assayed for inhibition of human IRAK4 and IRAK1 catalytic activity using recombinant enzyme produced from insect cells. Full-length IRAK4 protein, carrying an N-terminal His6-Tag, was obtained from Life Technologies (Carlsbad, Calif., USA). The IRAK1 construct was produced internally and was comprised of IRAK1 residues Arg194 to Ser712, preceded by an NH2-terminal His6 tag and the coding sequence for glutathione-S-transferase.

Sequence of human IRAK4 (Q9NWZ3 whole entry, the tested form may be a part): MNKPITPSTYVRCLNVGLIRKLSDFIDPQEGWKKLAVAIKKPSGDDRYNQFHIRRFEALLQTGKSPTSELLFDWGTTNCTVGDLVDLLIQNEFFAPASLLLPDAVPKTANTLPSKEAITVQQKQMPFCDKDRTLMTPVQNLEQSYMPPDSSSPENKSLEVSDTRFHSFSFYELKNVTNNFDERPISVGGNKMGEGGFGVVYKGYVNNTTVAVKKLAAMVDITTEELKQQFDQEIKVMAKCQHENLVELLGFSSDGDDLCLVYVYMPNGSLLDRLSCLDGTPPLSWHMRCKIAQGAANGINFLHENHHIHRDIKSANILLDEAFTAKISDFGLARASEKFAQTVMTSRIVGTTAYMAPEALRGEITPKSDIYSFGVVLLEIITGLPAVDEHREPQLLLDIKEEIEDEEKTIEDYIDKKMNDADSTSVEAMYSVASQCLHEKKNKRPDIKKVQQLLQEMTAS

With `CNC[C@H]1OC[C@@H](c2cc3c(cc2NC(=O)c2cnn4cccnc24)CC(C)(C)O3)CO1` [Example 20, Cis-N-[2,2-dimethyl-6-[2-(methylaminomethyl)-1,3-dioxan-5-yl]-3H-benzofuran-5-yl]pyrazolo[1,5-a]pyrimidine-3-carboxamide] as the molecule, how does the Ki read?
The Ki was 780 nM.

With `CC1(C)Cc2cc(NC(=O)c3cnn4cccnc34)c(N3C[C@@H]4[C@H](C3)[C@H]4C(N)=O)cc2O1` [Example 208, N-(6-((1R,5S,6r)-6-carbamoyl-3-azabicyclo[3.1.0]hexan-3-yl)-2,2-dimethyl-2,3-dihydrobenzofuran-5-yl)pyrazolo[1,5-a]pyrimidine-3-carboxamide] as the molecule, how does the Ki read?
Its Ki is 15 nM.

`C[C@@]1(CO)Cc2cc(NC(=O)c3cnn4cccnc34)c(OCC(F)F)cc2O1` [Example 310, (S)-N-(6-(2,2-difluoroethoxy)-2-(hydroxymethyl)-2-methyl-2,3-dihydrobenzofuran-5-yl)pyrazolo[1,5-a]pyrimidine-3-carboxamide] was tested. Which Ki did it give?
The Ki was 23 nM.

How did the Ki turn out when `CC1(C)Cc2cc(NC(=O)c3cnn4cccnc34)c(OC[C@H]3CNC(=O)C3)cc2O1` [Example 307, N-[2,2-Dimethyl-6-[[(3R)-5-oxopyrrolidin-3-yl]methoxy]-3H-benzofuran-5-yl]pyrazolo[1,5-a]pyrimidine-3-carboxamide] was run?
The Ki was 32 nM.

`CCC(=O)C1CCN(c2cc3c(cc2NC(=O)c2cnn4cccnc24)CC(C)(CO)O3)CC1` (stereo not shown) [Example 343, N-[2-(Hydroxymethyl)-2-methyl-6-(4-propanoyl-1-piperidyl)-3H-benzofuran-5-yl]pyrazolo[1,5-a]pyrimidine-3-carboxamide] was tested. Which Ki did it give?
The Ki was 5 nM.

Which Ki does the source give for `O=C(Nc1cc2c(cc1N1CCOCC1)C(=O)N([C@H]1CCC[C@H]1CO)C2)c1cnn2cccnc12` [Example 564, N-(2-((1S,2R)-2-(hydroxymethyl)cyclopentyl)-6-morpholino-1-oxoisoindolin-5-yl)pyrazolo[1,5-a]pyrimidine-3-carboxamide] here?
The Ki was 28 nM.

Which Ki does the source give for `CC(C)(O)C1CCN(c2cc3c(cc2NC(=O)c2cnn4cccnc24)C[C@](C)(CO)O3)CC1` [Example 324, N-[(2R)-2-(Hydroxymethyl)-6-[4-(1-hydroxy-1-methyl-ethyl)-1-piperidyl]-2-methyl-3H-benzofuran-5-yl]pyrazolo[1,5-α]pyrimidine-3-carboxamide] here?
The Ki was 4.8 nM.

Which Ki does the source give for `C[C@]1(CO)Cc2cc(NC(=O)c3cnn4cccnc34)c(N3C[C@@H]4[C@H](C3)[C@@H]4C(N)=O)cc2O1` [Example 348, N-((R)-6-((1R,5S,6S)-6-carbamoyl-3-azabicyclo[3.1.0]hexan-3-yl)-2-(hydroxymethyl)-2-methyl-2,3-dihydrobenzofuran-5-yl)pyrazolo[1,5-a]pyrimidine-3-carboxamide] here?
Its Ki is 890 nM.

`COc1cc2c(cc1NC(=O)c1cnn3ccc(N[C@@H]4CCCC[C@@H]4N)nc13)CC(C)(C)O2` [Example 451, 5-[[(1R,2S)-2-aminocyclohexyl]amino]-N-(6-methoxy-2,2-dimethyl-3H-benzofuran-5-yl)pyrazolo[1,5-a]pyrimidine-3-carboxamide] was tested. Which Ki did it give?
Its Ki is 4.7 nM.

Which Ki does the source give for `C[C@H](N)CN1CCN(c2cc3c(cc2NC(=O)c2cnn4cccnc24)CC(C)(C)O3)CC1` [Example 478, N-[6-[4-[(2S)-2-Aminopropyl]piperazin-1-yl]-2,2-dimethyl-3H-benzofuran-5-yl]pyrazolo[1,5-a]pyrimidine-3-carboxamide] here?
The Ki was 6 nM.

Which Ki does the source give for `C[C@@H](CN1Cc2cc(NC(=O)c3cnn4cccnc34)c(N3CCOCC3)cc2C1=O)N1CCOCC1` [Example 551, N-[6-morpholino-2-[(2S)-2-morpholinopropyl]-1-oxo-isoindolin-5-yl]pyrazolo[1,5-a]pyrimidine-3-carboxamide] here?
Its Ki is 2.9 nM.

For `C[C@]1(COC(F)F)Cc2cc(NC(=O)c3cnn4cccnc34)c(N3CCOCC3)cc2O1` [Example 155, (R)—N-(2-((difluoromethoxy)methyl)-2-Methyl-6-morpholino-2,3-dihydrobenzofuran-5-yl)pyrazolo[1,5-a]pyrimidine-3-carboxamide], which Ki is on record?
Its Ki is 22 nM.

Which Ki does the source give for `N#CCN1Cc2cc(NC(=O)c3cnn4cccnc34)c(N3CCOCC3)cc2C1=O` [Example 253, N-(2-(Cyanomethyl)-6-morpholino-1-oxoisoindolin-5-yl)pyrazolo[1,5-a]pyrimidine-3-carboxamide] here?
Its Ki is 20 nM.

`O=C(Nc1cc2c(cc1N1CCC(CO)CC1)C(=O)N(CC(F)(F)F)C2)c1cnn2cccnc12` [Example 263] was tested. Which Ki did it give?
The Ki was 8 nM.

How did the Ki turn out when `CC1(C)Cc2cc(NC(=O)c3cnn4cccnc34)c(N3CCC(C#N)CC3)cc2O1` [Example 216, N-(6-(4-cyanopiperidin-1-yl)-2,2-dimethyl-2,3-dihydrobenzofuran-5-yl)pyrazolo[1,5-a]pyrimidine-3-carboxamide] was run?
The Ki was 3 nM.

`CC(C)(O)[C@H](F)CN1Cc2cc(NC(=O)c3cnn4cccnc34)ccc2C1=O` [Example 500, N-[2-[(2R)-2-Fluoro-3-hydroxy-3-methyl-butyl]-1-oxo-isoindolin-5-yl]pyrazolo[1,5-a]pyrimidine-3-carboxamide] was tested. Which Ki did it give?
Its Ki is 84 nM.

How did the Ki turn out when `CC1(C)Cc2cc(NC(=O)c3cnn4cccnc34)c(N3CCC4(CC3)CNC(=O)C4)cc2O1` [Example 213, N-(2,2-dimethyl-6-(3-oxo-2,8-diazaspiro[4.5]decan-8-yl)-2,3-dihydrobenzofuran-5-yl)pyrazolo[1,5-a]pyrimidine-3-] was run?
The Ki was 3 nM.

With `CC(C)(O)[C@H](F)CN1Cc2cc(NC(=O)c3cnn4cc(Cl)cnc34)c(N3CCN(CC(F)F)CC3)cc2C1=O` [Example 285, 6-Chloro-N-[6-[4-(2,2-difluoroethyl)piperazin-1-yl]-2-[(2R)-2-fluoro-3-hydroxy-3-methyl-butyl]-1-oxo-isoindolin-5-yl]pyrazolo[1,5-a]pyrimidine-3-carboxamide] as the molecule, how does the Ki read?
The Ki was 2 nM.

`CC1(C#N)CCN(c2cc3c(cc2NC(=O)c2cnn4cccnc24)CN(C[C@@H](F)C(C)(C)O)C3=O)CC1` [Example 569, N-[6-(4-Cyano-4-methyl-1-piperidyl)-2-[(2R)-2-fluoro-3-hydroxy-3-methyl-butyl]-1-oxo-isoindolin-5-yl]pyrazolo[1,5-a]pyrimidine-3-carboxamide] was tested. Which Ki did it give?
Its Ki is 3.1 nM.

For `C[C@@]1(CO)Cc2cc(NC(=O)c3cnn4cccnc34)c(N3C[C@@H]4[C@H](C3)[C@H]4C(N)=O)cc2O1` [Example 414, N-((S)-6-((1R,5S,6S)-6-carbamoyl-3-azabicyclo[3.1.0]hexan-3-yl)-2-(hydroxymethyl)-2-methyl-2,3-dihydrobenzofuran-5-yl)pyrazolo[1,5-a]pyrimidine-3-carboxamide], which Ki is on record?
Its Ki is 12 nM.

`CC1(C)Cc2cc(NC(=O)c3cnn4cccnc34)c(O[C@@H]3CCN(CC(N)=O)C3)cc2O1` [Example 445, (R)—N-(6-((1-(2-amino-2-oxoethyl)pyrrolidin-3-yl)oxy)-2,2-dimethyl-2,3-dihydrobenzofuran-5-yl)pyrazolo[1,5-a]pyrimidine-3-carboxamide] was tested. Which Ki did it give?
The Ki was 3.3 nM.

Which Ki does the source give for `CC1(C)Cc2cc(NC(=O)c3cnn4cccnc34)c(N3CCN(CC4CCCO4)CC3)cc2O1` (stereo not shown) [Example 230, N-(2,2-Dimethyl-6-(4-((tetrahydrofuran-2-yl)methyl)piperazin-1-yl)-2,3-dihydrobenzofuran-5-yl)pyrazolo[1,5-a]pyrimidine-3-carboxamide] here?
The Ki was 18 nM.

For `Cc1cnc2c(C(=O)Nc3cc4c(cc3N3CCOCC3)O[C@](C)(CO)C4)cnn2c1` [Example 30, (S)—N-(2-(hydroxymethyl)-2-methyl-6-morpholino-2,3-dihydrobenzofuran-5-yl)-6-methylpyrazolo[1,5-a]pyrimidine-3-carboxamide], which Ki is on record?
Its Ki is 32 nM.

How did the Ki turn out when `CC1(C)Cc2cc(NC(=O)c3cnn4cccnc34)c(N3CC4(CCCOC4)C3)cc2O1` [Example 194, N-[2,2-dimethyl-6-(6-oxa-2-azaspiro[3.5]nonan-2-yl)-3H-benzofuran-5-yl]pyrazolo[1,5-a]pyrimidine-3-carboxamide] was run?
Its Ki is 410 nM.

With `C[C@@]1(O)COc2cc(N3CCN(CC(N)=O)CC3)c(NC(=O)c3cnn4cccnc34)cc2C1` [Example 425, (S)-N-(7-(4-(2-amino-2-oxoethyl)piperazin-1-yl)-3-hydroxy-3-methylchroman-6-yl)pyrazolo[1,5-a]pyrimidine-3-carboxamide] as the molecule, how does the Ki read?
Its Ki is 6 nM.

With `C[C@@]1(CO)Cc2cc(NC(=O)c3cnn4cccnc34)c(N3Cc4cccnc4C3)cc2O1` [Example 420, (S)-N-(6-(5,7-dihydro-6H-pyrrolo[3,4-b]pyridin-6-yl)-2-(hydroxymethyl)-2-methyl-2,3-dihydrobenzofuran-5-yl)pyrazolo[1,5-a]pyrimidine-3-carboxamide] as the molecule, how does the Ki read?
The Ki was 14 nM.

For `CC1(C)Cc2cc(NC(=O)c3cnn4cccnc34)c(N3CCN(CCn4cccn4)CC3)cc2O1` [Example 462, N-(6-(4-(2-(1H-pyrazol-1-yl)ethyl)piperazin-1-yl)-2,2-dimethyl-2,3-dihydrobenzofuran-5-yl)pyrazolo[1,5-a]pyrimidine-3-carboxamide], which Ki is on record?
The Ki was 6.5 nM.

Which Ki does the source give for `CC1(C)Cc2cc(NC(=O)c3cnn4cccnc34)c(N3CCC(S(N)(=O)=O)C3)cc2O1` (stereo not shown) [Example 241, N-(2,2-Dimethyl-6-(3-sulfamoylpyrrolidin-1-yl)-2,3-dihydrobenzofuran-5-yl)pyrazolo[1,5-a]pyrimidine-3-carboxamide] here?
Its Ki is 15 nM.

How did the Ki turn out when `CN1Cc2cc(NC(=O)c3cnn4cccnc34)c(N3CCOCC3)cc2S1(=O)=O` [Example 385, N-(2-methyl-6-morpholino-1,1-dioxo-3H-1,2-benzothiazol-5-yl)pyrazolo[1,5-a]pyrimidine-3-carboxamide] was run?
The Ki was 19 nM.

With `C[C@]1(CO)Cc2cc(NC(=O)c3cnn4cccnc34)c(N3CCC4(CC3)CNC(=O)C4)cc2O1` (single isomer, unassigned) [Example 417] as the molecule, how does the Ki read?
Its Ki is 3.6 nM.

`C[C@@]1(CO)Cc2cc(NC(=O)c3cnn4cccnc34)c(N3CCC4(CC3)CNC(=O)C4)cc2O1` [Example 418, (S)-N-(2-(hydroxymethyl)-2-methyl-6-(3-oxo-2,8-diazaspiro[4.5]decan-8-yl)-2,3-dihydrobenzofuran-5-yl)pyrazolo[1,5-a]pyrimidine-3-carboxamide] was tested. Which Ki did it give?
The Ki was 4.8 nM.
